The structures appear in SMILES notation. Some results are limits rather than exact numbers.

The target of one assay is PKCθ (Homo sapiens, UniProt Q04759). Put plainly: PKCθ Scintiplate Assay. Format: biochemical. Particulars: average value when one or more samples were tested. The procedure: This assay detects the phosphorylation of a biotinylated substrate by kinase utilizing radiolabeled ATP (ATP γ P33). The enzyme is either recombinant full length PKCθ (Panvera, P2996) or the purified recombinant active kinase domain of full length PKCθ (amino acids 362-706). The substrate in this assay is a biotinylated peptide with a sequence of biotin-[…]-CONH2. The assay buffer is composed of 100 mM Hepes, pH7.5, 2 mM MgCl2, 20 mM β-glycerophosphate and 0.008% TritonX 100. A reaction mixture of ATP, ATP γ P33 (PerkinElmer), DTT, lipid activator, and the enzyme is prepared in the assay buffer and added to a 96 well polypropylene plate. The compound (diluted in DMSO in a separate 96-well polypropylene plate) is added to the reaction mixture and incubated at room temperature. Following the incubation, the peptide substrate is added to the reaction mixture to initiate the enzymatic reaction. The reaction is terminated with the addition of a stop solution (10 mM EDTA, 0.2% TritonX100, and 100 mM NaHPO4) and transferred from the assay plate to a washed streptavidin-coated 96 well scintiplate (PerkinElmer). The scintiplate is incubated at room temperature, washed in PBS with 0.1% TritonX 100, and counted in the 1450 Microbeta Trilux (Wallac, Version 2.60). Counts are recorded for each well as corrected counts per minute (CCPM). The counts are considered corrected because they are adjusted according to a P33 normalization protocol, which corrects for efficiency and background differences between the instrument detectors (software version 4.40.01).
Sequence of PKCθ (Q04759 362-706 limits assumed): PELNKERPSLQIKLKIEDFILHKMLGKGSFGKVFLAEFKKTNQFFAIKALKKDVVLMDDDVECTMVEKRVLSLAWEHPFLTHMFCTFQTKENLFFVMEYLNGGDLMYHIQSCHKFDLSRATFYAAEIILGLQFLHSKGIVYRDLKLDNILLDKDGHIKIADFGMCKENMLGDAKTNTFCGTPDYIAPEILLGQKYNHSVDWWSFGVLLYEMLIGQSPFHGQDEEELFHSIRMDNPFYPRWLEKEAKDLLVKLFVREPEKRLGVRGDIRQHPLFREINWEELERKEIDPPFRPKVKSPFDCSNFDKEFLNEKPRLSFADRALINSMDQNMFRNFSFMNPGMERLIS

Assay [1] addresses T1, human PKCθ full length enzyme (Homo sapiens, UniProt Q04759).
T1 construct: human PKCθ full length enzyme (Panvera Catalog No. P2996); purchased Panvera P2996
Kind of assay: PKCθ IMAP Assay. It counts as biochemical. Particulars: average value when one or more samples were tested; ATP 6 uM, PKCθ 1 nM. In a few lines: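 Full-length human PKCθ (1 nM final) with 6 uM ATP and 100 nM 5FAM-labelled peptide, 5% DMSO, 3.0 mM DTT in reaction buffer. 25 min at room temperature; IMAP bead binding 20 min, fluorescence polarization read. Compounds 2:1 serially diluted; no-ATP and no-enzyme wells as controls.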

T1 sequence (Q04759 whole entry): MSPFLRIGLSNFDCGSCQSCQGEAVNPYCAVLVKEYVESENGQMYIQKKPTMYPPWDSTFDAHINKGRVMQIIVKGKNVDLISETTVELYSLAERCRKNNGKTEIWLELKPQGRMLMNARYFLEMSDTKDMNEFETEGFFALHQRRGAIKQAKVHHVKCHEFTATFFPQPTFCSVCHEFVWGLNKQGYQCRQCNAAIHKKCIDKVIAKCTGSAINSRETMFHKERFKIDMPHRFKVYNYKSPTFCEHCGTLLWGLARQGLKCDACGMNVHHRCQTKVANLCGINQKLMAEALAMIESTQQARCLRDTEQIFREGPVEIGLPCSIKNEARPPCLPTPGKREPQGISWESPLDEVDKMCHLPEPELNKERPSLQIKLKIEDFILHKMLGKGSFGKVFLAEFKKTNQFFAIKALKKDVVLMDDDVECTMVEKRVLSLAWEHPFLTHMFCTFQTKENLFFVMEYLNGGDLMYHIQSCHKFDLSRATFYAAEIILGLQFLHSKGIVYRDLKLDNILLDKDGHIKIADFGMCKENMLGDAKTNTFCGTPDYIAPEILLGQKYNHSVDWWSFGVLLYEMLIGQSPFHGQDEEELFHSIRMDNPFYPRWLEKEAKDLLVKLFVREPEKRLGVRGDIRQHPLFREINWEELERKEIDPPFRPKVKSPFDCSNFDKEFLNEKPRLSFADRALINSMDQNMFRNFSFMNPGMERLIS

A word on the IC50: it is the midpoint of a concentration-inhibition curve. Consider `N#Cc1cnc2sc(-c3cccc(CN4CCN(CCN5CCOCC5)CC4)c3)cc2c1Nc1ccc2[nH]ccc2c1` [Compound 150, 4-(1H-indol-5-ylamino)-2-(3-{[4-(2-morpholin-4-ylethyl)piperazin-1-yl]methyl}phenyl)thieno[2,3-b]pyridine-5-carbonitrile], for which the IC50 was found to be 41 nM on PKCθ and 160 nM in assay [1]. For the molecule `Cc1c[nH]c2ccc(Nc3c(C#N)cnc4sc(-c5ccccc5)cc34)cc12` [Compound 133, 4-[(3-methyl-1H-indol-5-yl)amino]-2-phenylthieno[2,3-b]pyridine-5-carbonitrile], the IC50 against PKCθ was found to be 800 nM; in assay [1], 1400 nM. For `Cc1cc2cc(Nc3c(C#N)cnc4sc(-c5ccccc5)cc34)ccc2[nH]1` [Compound 118, 4-[(2-methyl-1H-indol-5-yl)amino]-2-phenylthieno[2,3-b]pyridine-5-carbonitrile], in that order: 2700 nM and 1900 nM. For `CN(C)Cc1ccc(-c2cc3c(Nc4ccc5[nH]ccc5c4)c(C#N)cnc3s2)s1` [Compound 211, 2-{5-[(dimethylamino)methyl]-2-thienyl}-4-(1H-indol-5-ylamino)thieno[2,3-b]pyridine-5-carbonitrile], in that order: 34 nM and 82 nM. Turning to `N#Cc1cnc2sc(-c3cccc(CN(CCO)CCO)c3)cc2c1Nc1ccc2[nH]ccc2c1` [Compound 151, 2-(3-{[bis(2-hydroxyethyl)amino]methyl}phenyl)-4-(1H-indol-5-ylamino)thieno[2,3-b]pyridine-5-carbonitrile], the IC50 is 88 nM at PKCθ and 77 nM in assay [1]. For `N#Cc1cnc2sc(C#Cc3cn[nH]c3)cc2c1Nc1ccc2[nH]ccc2c1` [Compound 227, 4-(1H-indol-5-ylamino)-2-(1H-pyrazol-4-ylethynyl)thieno[2,3-b]pyridine-5-carbonitrile], in that order: 150 nM and 290 nM. As for `N#Cc1cnc2sc(-c3ccc(CNCCO)cc3)cc2c1Nc1ccc2[nH]ccc2c1` [Compound 106, 2-(4-{[(2-hydroxyethyl)amino]methyl}phenyl)-4-(1H-indol-5-ylamino)thieno[2,3-b]pyridine-5-carbonitrile], the IC50 on PKCθ is 80 nM; in assay [1], 140 nM. The matching figures for `CN(C)Cc1ccc(-c2cc3c(Nc4ccc5[nH]ccc5c4)c(C#N)cnc3s2)nc1` [Compound 204, 2-{5-[(dimethylamino)methyl]pyridin-2-yl}-4-(1H-indol-5-ylamino)thieno[2,3-b] pyridine-5-carbonitrile]: 110 nM and 180 nM. As to `CN(C)Cc1cccc(-c2cc3c(Nc4cccc5[nH]ccc45)c(C#N)cnc3s2)c1` [Compound 141, 2-{3-[(dimethylamino)methyl]phenyl}-4-(1H-indol-4-ylamino)thieno[2,3-b]pyridine-5-carbonitrile], the IC50 was found to be 41 nM against PKCθ and 40 nM in assay [1]. Consider `CN(C)Cc1cccc(C#Cc2cc3c(Nc4ccc5[nH]ccc5c4)c(C#N)cnc3s2)n1` [Compound 217, 2-({6-[(dimethylamino)methyl]pyridin-2-yl}ethynyl)-4-(1H-indol-5-ylamino)thieno[2,3-b]pyridine-5-carbonitrile], for which the values for the half-inhibitory concentration (IC50) (against PKCθ; in assay [1]) were 59 nM and 69 nM, respectively.

Regarding `CN(C)CC#Cc1cc2c(Nc3ccc4[nH]ccc4c3)c(C#N)cnc2s1` [Compound 223, 2-[3-(dimethylamino)prop-1-yn-1-yl]-4-(1H-indol-5-ylamino)thieno[2,3-b]pyridine-5-carbonitrile], the IC50 on PKCθ is 88 nM; in assay [1], 1400 nM.

Consider `CN(C)Cc1cccc(-c2cc3c(Nc4ccc5[nH]ccc5c4)c(C#N)cnc3s2)c1` [Compound 147, 2-{3-[(dimethylamino)methyl]phenyl}-4-(1H-indol-5-ylamino)thieno[2,3-b]pyridine-5-carbonitrile], for which the values for the IC50 (on PKCθ; in assay [1]) were 43 nM and 75 nM, respectively. Consider `Cc1c(Nc2c(C#N)cnc3sc(-c4cccc(CN(C)C)c4)cc23)ccc2[nH]ccc12` [Compound 187, 2-{3-[(dimethylamino)methyl]phenyl}-4-[(4-methyl-1H-indol-5-yl)amino]thieno[2,3-b]pyridine-5-carbonitrile], for which the results for the IC50 (at PKCθ; in assay [1]) were 4.5 nM and 8 nM, respectively. The matching figures for `CN1CCN(Cc2cccc(C#Cc3cc4c(Nc5ccc6[nH]ccc6c5)c(C#N)cnc4s3)n2)CC1` [Compound 216, 4-(1H-indol-5-ylamino)-2-({6-[(4-methylpiperazin-1-yl)methyl]pyridin-2-yl}ethynyl)thieno[2,3-b]pyridine-5-carbonitrile]: 90 nM and 320 nM. For `CN(C)C(=O)c1cccc(-c2cc3c(Nc4ccc5[nH]ccc5c4)c(C#N)cnc3s2)n1` [Compound 209, 6-[5-cyano-4-(1H-indol-5-ylamino)thieno[2,3-b]pyridin-2-yl]-N,N-dimethylpyridine-2-carboxamide], in that order: 170 nM and 150 nM.

For `N#Cc1cnc2sc(-c3cccc(CN4CCN(CCO)CC4)c3)cc2c1Nc1ccc2[nH]ccc2c1` [Compound 148, 2-(3-{[4-(2-hydroxyethyl)piperazin-1-yl]methyl}phenyl)-4-(1H-indol-5-ylamino)thieno[2,3-b]pyridine-5-carbonitrile], the IC50 is 60 nM at PKCθ and 73 nM in assay [1]. For `N#Cc1cnc2sc(-c3cccc(CNCCO)c3)cc2c1Nc1ccc2[nH]ccc2c1` [Compound 149, 2-(3-{[(2-hydroxyethyl)amino]methyl}phenyl)-4-(1H-indol-5-ylamino)thieno[2,3-b]pyridine-5-carbonitrile], in that order: 13 nM and 30 nM. For the molecule `N#Cc1cnc2sc(-c3ccc(N4CCOCC4)cc3)cc2c1Nc1ccc2[nH]ccc2c1` [Compound 189, 4-(1H-indol-5-ylamino)-2-(4-morpholin-4-ylphenyl)thieno[2,3-b]pyridine-5-carbonitrile], at PKCθ, the IC50 turned out to be 2100 nM. This lies in the single-digit micromolar range. With `Cn1ccc2cc(Nc3c(C#N)cnc4sc(-c5ccccc5)cc34)ccc21` [Compound 134, 4-[(1-methyl-1H-indol-5-yl)amino]-2-phenylthieno[2,3-b]pyridine-5-carbonitrile], the IC50 at PKCθ was over 200000 nM.

As to `CN(C)CCc1ccc(-c2cc3c(Nc4ccc5[nH]ccc5c4)c(C#N)cnc3s2)cc1` [Compound 192, 2-{4-[2-(dimethylamino)ethyl]phenyl}-4-(1H-indol-5-ylamino)thieno[2,3-b] pyridine-5-carbonitrile], the IC50 against PKCθ worked out at 45 nM.

`N#Cc1cnc2sc(-c3ccccc3)cc2c1NCc1cccc2[nH]ccc12` [Compound 125, 4-(1H-indol-4-ylmethylamino)-2-phenylthieno[2,3-b]pyridine-5-carbonitrile]: the IC50 on PKCθ was over 30000 nM. `CN1CCN(Cc2ccc(-c3cc4c(Nc5ccc6[nH]ccc6c5)c(C#N)cnc4s3)cc2)CC1` [Compound 104, 4-(1H-indol-5-ylamino)-2-{4-[(4-methylpiperazin-1-yl)methyl]phenyl}thieno[2,3-b]pyridine-5-carbonitrile] came in with an IC50 against PKCθ of 280 nM. Still for that read-out and setting: the value for `CN(C)Cc1ccc(-c2cc3c(Nc4ccc5[nH]ccc5c4)c(C#N)cnc3s2)cc1` [Compound 105, 2-{4-[(dimethylamino)methyl]phenyl}-4-(1H-indol-5-ylamino)thieno[2,3-b]pyridine-5-carbonitrile] was 77 nM.

Values taken from patent publication US20070082880A1 (priority 2005, published 2007).
